Results taken from patent US20220373534A1, “HUMAN NASOPHARYNGEAL CARCINOMA CELLS DERIVED FROM PATIENT DERIVED XENOGRAFT AND USES THEREOF” (Chang Gung Memorial Hospital, Linkou, priority 2021, published 2022).

System: NPC PDX-B13
Assay: In vivo study of tumor volume in the NPC PDX-B13 mouse model
Set-up: species or system NOD/SCID mice
Conditions: week 6, read from FIG. 4
Description: NPC cell lines, C666-1 (EBV positive) and HK-1 (EBV negative), were maintained in RPMI containing 10% fetal bovine serum (FBS). A cell growth assay and animal studies were conducted as described by CL Hsu et al (“Application of a Patient-Derived Xenograft Model in Cytolytic Viral Activation Therapy for Nasopharyngeal Carcinoma.” Oncotarget 6, no. 31 (2015): 31323-34).
PDX models were generated as follows: NPC tumor samples were obtained from patients with local recurrence or metastasis undergoing biopsy or surgical resection. Each sample was immediately cut into smaller pieces of approximately 3-5 mm in diameter and subcutaneously implanted into the flank regions of anesthetized NOD/SCID mice. The xenograft was excised and reimplanted in small pieces into the next passage after the tumor reached 1-2 cm in diameter.

CN(C)C/C=C/C(=O)Nc1cc2c(Nc3ccc(F)c(Cl)c3)ncnc2cc1O[C@H]1CCOC1 [AFA, Afatinib]
inhibit PDX-B13 tumor growth (reduce tumor volume): approximately 30%

CC(=O)c1c(C)c2cnc(Nc3ccc(N4CCNCC4)cn3)nc2n(C2CCCC2)c1=O [PAL, Palbociclib]
inhibit PDX-B13 tumor growth (reduce tumor volume): ~70%
